The target in the assay is T1, KIAA0528 Uncharacterized protein KIAA0528 (Homo sapiens, UniProt Q86YS7).
T1 construct: Cells were resuspended in cold PBS on ice and sonicated with a probe sonicator to achieve lysis; endogenous in cells
T1 sequence (Q86YS7 1-1000): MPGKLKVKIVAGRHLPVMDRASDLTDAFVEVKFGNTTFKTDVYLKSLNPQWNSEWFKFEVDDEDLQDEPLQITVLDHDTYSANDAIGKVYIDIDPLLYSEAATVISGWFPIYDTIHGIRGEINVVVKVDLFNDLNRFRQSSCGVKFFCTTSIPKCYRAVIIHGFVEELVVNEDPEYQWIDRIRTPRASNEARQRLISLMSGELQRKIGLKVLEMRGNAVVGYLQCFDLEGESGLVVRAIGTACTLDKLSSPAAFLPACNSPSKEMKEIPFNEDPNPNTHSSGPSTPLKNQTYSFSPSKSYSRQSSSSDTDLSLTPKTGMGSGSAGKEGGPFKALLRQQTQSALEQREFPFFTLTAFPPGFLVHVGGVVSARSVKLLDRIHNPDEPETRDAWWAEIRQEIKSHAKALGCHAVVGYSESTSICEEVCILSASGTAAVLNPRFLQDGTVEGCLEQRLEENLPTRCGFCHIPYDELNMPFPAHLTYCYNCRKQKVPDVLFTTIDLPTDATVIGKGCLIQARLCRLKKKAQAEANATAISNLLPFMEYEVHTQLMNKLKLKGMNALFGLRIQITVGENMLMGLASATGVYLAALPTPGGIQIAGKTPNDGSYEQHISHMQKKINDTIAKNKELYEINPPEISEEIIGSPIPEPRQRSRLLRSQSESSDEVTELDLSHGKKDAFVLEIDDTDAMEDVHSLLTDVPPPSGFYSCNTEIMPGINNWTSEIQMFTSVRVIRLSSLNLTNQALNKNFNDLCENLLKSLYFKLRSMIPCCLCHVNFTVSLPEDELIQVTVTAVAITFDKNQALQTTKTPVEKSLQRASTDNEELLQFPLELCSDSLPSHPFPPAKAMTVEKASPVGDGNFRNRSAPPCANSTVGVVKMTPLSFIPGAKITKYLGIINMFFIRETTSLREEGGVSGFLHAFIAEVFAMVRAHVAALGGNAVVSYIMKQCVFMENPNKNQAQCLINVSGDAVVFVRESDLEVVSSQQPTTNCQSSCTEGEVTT
The assay can be described thus: Cysteine liganding, probe competition. It counts as binding. The gist of the method: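 Lysates from probe-sonicated cells in PBS (5 mg/ml proteome) were exposed to compound for 1 hr at 25° C, then labelled with desthiobiotin iodoacetamide probe (10 mM stock) for 1 hr at 25° C. Probe-tagged peptides were streptavidin-enriched after trypsin digestion.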

As to `COc1ccc2c(c1)CCCN2C(=O)CCl` [KB02], the Liganded result (KIAA0528 Res# 867, uniprot Q86YS7) is on record as “YES”.

As to `O=C(CCl)Nc1cc(C(F)(F)F)cc(C(F)(F)F)c1` [KBO3], where the note is “uniprot Q86YS7”, the 100 ave was −6.4125, the “500 Max” value was 46.81 and the 500 ave was found to be 33.415. Moreover, under “uniprot Q86YS7, unit assumed”, the 100 Max stood at 7.23%.
